Experimental data reported in patent US11077141B2, “Anti-tumor T cell immunity induced by high dose radiation” (The Board of Trustees of the Leland Stanford Junior …, priority 2012, dated 2021).

Key:
CT26 tumors = assay: Survival of CT26 tumor-bearing RAG-2-/- mice given 30 Gy LTI with or without CY and T cells; assay type: in vivo, BALB/c RAG2-/- mice; conditions: 30 Gy LTI at day 21
Method: Animals. Wild-type male BALB/c (H-2^d) mice, and male BALB/c RAG2^−/− mice, were purchased from Jackson Laboratories (Bar Harbor, Me.). Mice were 5-8 weeks old.
Irradiation. Total body irradiation was performed with a Philips X-ray unit (200 kV, 10 mA; Philips Electronic Instruments Inc., Rahway, N.J.) at a rate of 84 cGy/min with a 0.5 mm Cu filter. For local tumor irradiation, unanesthetized mice were placed in lead jigs through which established tumors in the hind quarter were protruded for irradiation to an area of approximately 2 cm diameter. Irradiation was performed with a Phillips X-ray unit operated at 200 kV with the dose rate of 1.21 Gy/min (20 mÅ with added filtration of 0.5 mm copper, the distance from X-ray source to the target of 31 cm, and a half value layer of 1.3 mm copper).
Cell preparation, splenectomy, and collection of T cells for autologous transplantation. Single cell suspensions of bone marrow and spleen were prepared according to previously described procedures. […]
FACS Aria (Becton Dickinson, Mountain View, Calif.) was used for analysis with FlowJo software (TreeStar, Ashland, Oreg.). After sorting cells were checked by FACS reanalysis and determined to be >99% pure. […]

CT26 luc+ tumor cells = assay: Bioluminescence imaging of luciferase transduced CT26 tumors in RAG2-/- mice given LTI and CY with or without T cells; set-up: species or system BALB/c RAG2-/- mice; conditions: mouse, in vivo
Text: Cell lines. The CT26 cell line (an N-nitro-N-methylurethane-induced BALB/c murine colon carcinoma) was purchased from ATCC (Manassas, Va.). The 4T1 cell line (spontaneously arising) was also obtained from ATCC. The 4T1-LUC/GFP and CT26-LUC/GFP cell lines were lentiviraly transduced. The lentiviral vector pHR-IG was made by Dr. Yoshitaka Akagi. The GFP-firefly luciferase fusion (GLF) gene was subcloned from pJW.GFP-yLuc (kindly provided by Dr. M. H. Bachmann) into pHR2 to generate pHR2-GLF. Lentiviral particles expressing GLF were prepared as described before. […]. WT 4T1 and CT26 cells were seeded in a 6 well plate at 0.25×10^6 cells/well and incubated overnight in a 37° C. incubator. Titrated virus was then used to transduce the cell lines in the presence of protamine sulfate (10 μg/ml) to enhance transduction efficiency. Stable lentiviral transductants were then sorted 4 times for GFP fluorescence (100% purity) using a FACS DIVA cell sorter. Sorted cells were expanded and screened for bioluminescence using an Xenogen IVIS spectrum (Caliper Life Sciences; Hopkinton, Mass.), as well as GFP. Cell lines were maintained in RPMI-1640 complete medium supplemented with 10% fetal calf serum, L-glutamine, 2 mercaptoethanol, streptomycin and penicillin.
In vivo BLI imaging. In vivo BLI was performed according to the method of Edinger et al. Briefly, mice were injected intraperitoneally with luciferin ([…]). Ten minutes later, mice were imaged using an IVIS100 charge-coupled device imaging system (Xenogen) for 5 minutes. Imaging data were analyzed and quantified with Living Image software (Xenogen).

4T1 luc+ breast tumor = assay: 4T1 breast tumor metastasis model: LTI (3 daily doses of 20 Gy), CY and cryopreserved autologous T cells; assay type: in vivo, BALB/c mice; conditions: 21 day 4T1 tumors; 3 daily doses of 20 Gy LTI, then single dose of CY
Method: Irradiation. […] For local tumor irradiation, unanesthetized mice were placed in lead jigs through which established tumors in the hind quarter were protruded for irradiation to an area of approximately 2 cm diameter. Irradiation was performed with a Phillips X-ray unit operated at 200 kV with the dose rate of 1.21 Gy/min (20 mÅ with added filtration of 0.5 mm copper, the distance from X-ray source to the target of 31 cm, and a half value layer of 1.3 mm copper).
Enriched cells were stained with anti-TCR-allophycocyanin (APC) and anti-CD4 or anti-CD8-fluorescein isothiocyanate (FITC) mAbs to check for purity, and preparations were uniformly at least 95% pure.
FACS Aria (Becton Dickinson, Mountain View, Calif.) was used for analysis with FlowJo software (TreeStar, Ashland, Oreg.). After sorting cells were checked by FACS reanalysis and determined to be >99% pure. Collected T cells were cryopreserved with 10% DMSO and frozen in liquid nitrogen.
In vivo BLI imaging. In vivo BLI was performed according to the method of Edinger et al. Briefly, mice were injected intraperitoneally with luciferin (10 μg/g body weight). Ten minutes later, mice were imaged using an IVIS100 charge-coupled device imaging system (Xenogen) for 5 minutes. Imaging data were analyzed and quantified with Living Image software (Xenogen).

O=P1(N(CCCl)CCCl)NCCCO1 (stereo not shown) [CY, cyclophosphamide] was tested, and the “survival (none of the mice survived beyond)” value (CT26 tumors) was ≤ 80 days, the “day by which all of the mice died” value (CT26 luc+ tumor cells) was ≤ 107 and the “death or survival of mice by day 35” value (CT26 luc+ tumor cells) was 2 of 5. The “tumor signal / tumor growth by BLI” value (CT26 luc+ tumor cells) was “continued tumor growth”, the “mice died by day 84” value (4T1 luc+ breast tumor) was 6 of 8 and the “mice relapsed at day 98” value (4T1 luc+ breast tumor) was 1. The tumor growth (4T1 luc+ breast tumor) was “progression of tumor growth was slowed”.
